Source: the kinase profiling compilation of Christmann-Franck et al. (2016)

Legend:
Experiment in all cases: radiometric filter-binding kinase assay, Kinase HotSpot
Conditions in all cases: compound 0.5 µM; ATP 10 µM
AURKB (human) = AURKB (human) (UniProt Q96GD4)
ACVR1B (human) = ACVR1B (human) (UniProt P36896)
DAPK2 (human) = DAPK2 (human) (UniProt Q9UIK4)
EPHA3 (human) = EPHA3 (human) (UniProt P29320)
IRAK1 (human) = IRAK1 (human) (UniProt P51617)
STK3 (human) = STK3 (human) (UniProt Q13188)
MAPK11 (human) = MAPK11 (human) (UniProt Q15759)
PRKCB1 (human) = PRKCB1 (human) (UniProt P05771)
RPS6KA3 KD1 KD2 (human) = RPS6KA3 KD1 KD2 (human) (UniProt P51812)
PHKG2 (human) = PHKG2 (human) (UniProt P15735)
ULK3 (human) = ULK3 (human) (UniProt Q6PHR2)
GSK3B (human) = GSK3B (human) (UniProt P49841)
RPS6KB1 (human) = RPS6KB1 (human) (UniProt P23443)
NEK1 (human) = NEK1 (human) (UniProt Q96PY6)
PNCK (human) = PNCK (human) (UniProt Q6P2M8)
YES1 (human) = YES1 (human) (UniProt P07947)
MST4 (human) = MST4 (human) (UniProt Q9P289)
PAK4 (human) = PAK4 (human) (UniProt O96013)
CAMK1 (human) = CAMK1 (human) (UniProt Q14012)
PLK1 (human) = PLK1 (human) (UniProt P53350)
ERBB2 (human) = ERBB2 (human) (UniProt P04626)
TYRO3 (human) = TYRO3 (human) (UniProt Q06418)
CHEK1 (human) = CHEK1 (human) (UniProt O14757)
MYLK (human) = MYLK (human) (UniProt Q15746)
RPS6KA6 KD1 KD2 (human) = RPS6KA6 KD1 KD2 (human) (UniProt Q9UK32)
PRKCI (human) = PRKCI (human) (UniProt P41743)
MKNK2 (human) = MKNK2 (human) (UniProt Q9HBH9)
MYLK2 (human) = MYLK2 (human) (UniProt Q9H1R3)
EPHB3 (human) = EPHB3 (human) (UniProt P54753)
IKBKE (human) = IKBKE (human) (UniProt Q14164)
STK25 (human) = STK25 (human) (UniProt O00506)
CLK2 (human) = CLK2 (human) (UniProt P49760)
STK38 (human) = STK38 (human) (UniProt Q15208)
FGFR1 (human) = FGFR1 (human) (UniProt P11362)
MLTK (human) = MLTK (human) (UniProt Q9NYL2)
PRKD2 (human) = PRKD2 (human) (UniProt Q9BZL6)
RET (human) = RET (human) (UniProt P07949)
MINK1 (human) = MINK1 (human) (UniProt Q8N4C8)
MET (human) = MET (human) (UniProt P08581)
MAPK10 (human) = MAPK10 (human) (UniProt P53779)
MAPKAPK5 (human) = MAPKAPK5 (human) (UniProt Q8IW41)
NEK7 (human) = NEK7 (human) (UniProt Q8TDX7)

Sequence of MAPK11 (human) (Q15759 whole entry, looked up): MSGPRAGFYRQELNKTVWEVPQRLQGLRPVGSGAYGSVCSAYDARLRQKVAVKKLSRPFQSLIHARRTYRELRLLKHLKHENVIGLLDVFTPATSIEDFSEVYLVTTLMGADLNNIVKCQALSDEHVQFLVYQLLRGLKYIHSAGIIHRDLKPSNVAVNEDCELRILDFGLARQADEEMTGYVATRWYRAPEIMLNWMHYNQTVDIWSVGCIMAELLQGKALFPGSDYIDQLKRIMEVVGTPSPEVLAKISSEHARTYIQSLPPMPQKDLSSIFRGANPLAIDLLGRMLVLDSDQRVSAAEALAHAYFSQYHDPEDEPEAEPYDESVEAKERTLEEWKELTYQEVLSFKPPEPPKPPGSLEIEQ
Sequence of CLK2 (human) (P49760 whole entry, looked up): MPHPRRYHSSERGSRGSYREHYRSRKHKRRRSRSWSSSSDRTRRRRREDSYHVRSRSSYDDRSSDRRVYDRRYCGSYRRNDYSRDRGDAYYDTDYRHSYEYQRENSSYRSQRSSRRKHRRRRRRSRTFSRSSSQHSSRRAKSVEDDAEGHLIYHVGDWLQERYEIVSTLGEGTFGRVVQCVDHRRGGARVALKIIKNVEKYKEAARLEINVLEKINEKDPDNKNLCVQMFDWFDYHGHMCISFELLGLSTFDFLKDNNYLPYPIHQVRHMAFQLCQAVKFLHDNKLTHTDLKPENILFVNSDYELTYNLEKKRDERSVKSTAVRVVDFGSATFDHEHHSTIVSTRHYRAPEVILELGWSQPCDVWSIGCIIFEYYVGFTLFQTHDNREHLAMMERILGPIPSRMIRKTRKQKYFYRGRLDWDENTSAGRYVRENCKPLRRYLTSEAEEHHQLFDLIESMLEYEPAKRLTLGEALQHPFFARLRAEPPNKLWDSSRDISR
Sequence of STK3 (human) (Q13188 whole entry, looked up): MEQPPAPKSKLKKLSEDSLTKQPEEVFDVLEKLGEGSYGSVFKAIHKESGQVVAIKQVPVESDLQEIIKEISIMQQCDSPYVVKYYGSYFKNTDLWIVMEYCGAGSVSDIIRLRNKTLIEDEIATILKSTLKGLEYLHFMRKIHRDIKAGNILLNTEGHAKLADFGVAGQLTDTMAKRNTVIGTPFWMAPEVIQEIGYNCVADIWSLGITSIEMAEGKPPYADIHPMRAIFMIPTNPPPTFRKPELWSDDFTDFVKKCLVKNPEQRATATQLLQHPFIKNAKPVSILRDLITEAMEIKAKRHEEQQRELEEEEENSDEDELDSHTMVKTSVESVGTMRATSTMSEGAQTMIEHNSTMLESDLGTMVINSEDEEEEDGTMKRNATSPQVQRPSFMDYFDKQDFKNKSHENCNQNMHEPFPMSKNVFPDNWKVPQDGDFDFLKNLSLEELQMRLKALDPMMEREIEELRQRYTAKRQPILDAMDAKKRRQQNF
Sequence of PRKCB1 (human) (P05771 whole entry, looked up): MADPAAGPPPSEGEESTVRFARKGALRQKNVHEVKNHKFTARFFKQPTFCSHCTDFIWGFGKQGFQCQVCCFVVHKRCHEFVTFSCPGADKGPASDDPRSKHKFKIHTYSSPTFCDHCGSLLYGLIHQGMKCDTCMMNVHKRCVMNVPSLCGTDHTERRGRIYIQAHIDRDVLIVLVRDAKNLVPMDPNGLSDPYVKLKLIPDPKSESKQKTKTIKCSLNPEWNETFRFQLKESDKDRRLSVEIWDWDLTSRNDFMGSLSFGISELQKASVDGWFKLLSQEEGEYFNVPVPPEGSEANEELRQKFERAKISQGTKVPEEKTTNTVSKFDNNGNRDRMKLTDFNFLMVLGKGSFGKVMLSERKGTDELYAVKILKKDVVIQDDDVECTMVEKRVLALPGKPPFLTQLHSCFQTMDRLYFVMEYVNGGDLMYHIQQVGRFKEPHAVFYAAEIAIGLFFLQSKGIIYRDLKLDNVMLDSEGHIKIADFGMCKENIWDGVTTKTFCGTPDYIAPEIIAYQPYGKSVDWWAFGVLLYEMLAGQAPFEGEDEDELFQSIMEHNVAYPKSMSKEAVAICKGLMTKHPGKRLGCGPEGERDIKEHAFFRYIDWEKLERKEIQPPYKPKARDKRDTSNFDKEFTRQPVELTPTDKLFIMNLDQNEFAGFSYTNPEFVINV
Sequence of FGFR1 (human) (P11362 whole entry, looked up): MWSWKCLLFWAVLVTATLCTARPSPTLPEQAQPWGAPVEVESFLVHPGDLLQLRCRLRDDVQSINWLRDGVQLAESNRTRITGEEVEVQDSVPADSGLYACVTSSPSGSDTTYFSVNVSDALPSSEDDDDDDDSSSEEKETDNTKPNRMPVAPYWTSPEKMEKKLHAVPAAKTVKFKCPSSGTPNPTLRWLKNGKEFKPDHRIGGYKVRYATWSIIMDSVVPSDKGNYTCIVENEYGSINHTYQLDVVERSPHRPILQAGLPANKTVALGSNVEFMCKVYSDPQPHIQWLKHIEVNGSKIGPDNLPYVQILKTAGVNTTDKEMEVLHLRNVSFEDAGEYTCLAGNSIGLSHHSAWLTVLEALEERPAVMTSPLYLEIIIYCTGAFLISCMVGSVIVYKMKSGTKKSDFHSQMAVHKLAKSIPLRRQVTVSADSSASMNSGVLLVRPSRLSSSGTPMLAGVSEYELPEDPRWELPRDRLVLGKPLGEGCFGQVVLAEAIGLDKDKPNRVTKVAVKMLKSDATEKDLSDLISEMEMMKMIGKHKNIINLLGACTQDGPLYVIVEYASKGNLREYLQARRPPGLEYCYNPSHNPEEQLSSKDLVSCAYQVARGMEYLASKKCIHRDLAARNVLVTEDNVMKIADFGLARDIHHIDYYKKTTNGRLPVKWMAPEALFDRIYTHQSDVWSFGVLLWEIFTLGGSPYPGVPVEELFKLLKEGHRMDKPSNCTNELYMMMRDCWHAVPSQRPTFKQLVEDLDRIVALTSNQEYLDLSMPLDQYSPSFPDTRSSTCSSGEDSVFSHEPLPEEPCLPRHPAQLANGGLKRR
Sequence of PAK4 (human) (O96013 whole entry, looked up): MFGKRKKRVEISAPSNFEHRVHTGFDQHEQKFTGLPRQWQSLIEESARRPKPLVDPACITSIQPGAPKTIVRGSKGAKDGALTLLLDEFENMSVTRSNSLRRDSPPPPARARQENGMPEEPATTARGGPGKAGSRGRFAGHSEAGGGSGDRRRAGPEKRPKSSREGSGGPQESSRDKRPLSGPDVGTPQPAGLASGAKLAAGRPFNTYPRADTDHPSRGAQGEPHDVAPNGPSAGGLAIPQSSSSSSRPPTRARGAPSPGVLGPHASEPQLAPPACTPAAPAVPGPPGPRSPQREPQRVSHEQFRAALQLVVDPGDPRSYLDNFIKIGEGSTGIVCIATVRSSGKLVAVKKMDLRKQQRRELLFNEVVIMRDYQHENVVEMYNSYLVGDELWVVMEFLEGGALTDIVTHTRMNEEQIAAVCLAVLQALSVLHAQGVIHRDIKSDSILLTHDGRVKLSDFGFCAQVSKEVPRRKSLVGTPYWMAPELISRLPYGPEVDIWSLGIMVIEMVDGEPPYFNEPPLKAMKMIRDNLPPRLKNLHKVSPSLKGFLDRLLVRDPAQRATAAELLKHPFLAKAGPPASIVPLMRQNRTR
Sequence of RPS6KA3 KD1 KD2 (human) (P51812 whole entry, looked up): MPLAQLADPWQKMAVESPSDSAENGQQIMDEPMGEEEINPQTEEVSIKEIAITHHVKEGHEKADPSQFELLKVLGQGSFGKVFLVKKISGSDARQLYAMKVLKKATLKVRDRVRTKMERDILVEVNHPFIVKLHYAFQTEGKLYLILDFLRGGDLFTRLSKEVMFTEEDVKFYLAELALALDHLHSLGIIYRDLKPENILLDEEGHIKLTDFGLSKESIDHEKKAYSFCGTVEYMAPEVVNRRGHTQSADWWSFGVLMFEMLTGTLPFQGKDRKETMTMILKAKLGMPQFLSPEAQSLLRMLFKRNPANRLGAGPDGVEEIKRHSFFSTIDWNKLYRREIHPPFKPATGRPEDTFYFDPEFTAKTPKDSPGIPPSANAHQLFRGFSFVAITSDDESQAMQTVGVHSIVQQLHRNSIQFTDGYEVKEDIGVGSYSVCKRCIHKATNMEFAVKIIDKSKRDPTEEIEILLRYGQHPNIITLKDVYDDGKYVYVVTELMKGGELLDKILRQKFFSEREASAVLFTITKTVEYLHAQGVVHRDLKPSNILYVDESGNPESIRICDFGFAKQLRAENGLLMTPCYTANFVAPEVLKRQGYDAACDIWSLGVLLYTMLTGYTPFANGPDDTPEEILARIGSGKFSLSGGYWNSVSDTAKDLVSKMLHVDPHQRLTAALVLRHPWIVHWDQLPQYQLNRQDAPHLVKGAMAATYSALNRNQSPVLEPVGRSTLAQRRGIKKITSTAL
Sequence of GSK3B (human) (P49841 whole entry, looked up): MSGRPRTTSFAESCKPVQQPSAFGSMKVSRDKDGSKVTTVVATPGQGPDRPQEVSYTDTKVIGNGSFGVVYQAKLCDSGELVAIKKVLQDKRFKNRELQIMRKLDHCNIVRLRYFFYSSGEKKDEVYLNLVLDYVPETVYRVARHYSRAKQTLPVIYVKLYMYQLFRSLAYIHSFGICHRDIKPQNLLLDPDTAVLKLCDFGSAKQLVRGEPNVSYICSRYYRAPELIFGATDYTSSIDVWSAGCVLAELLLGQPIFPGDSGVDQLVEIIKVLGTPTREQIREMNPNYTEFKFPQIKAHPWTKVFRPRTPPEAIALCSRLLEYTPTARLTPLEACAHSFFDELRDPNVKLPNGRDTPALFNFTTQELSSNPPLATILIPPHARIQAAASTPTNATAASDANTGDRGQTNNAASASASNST
Sequence of PNCK (human) (Q6P2M8 whole entry, looked up): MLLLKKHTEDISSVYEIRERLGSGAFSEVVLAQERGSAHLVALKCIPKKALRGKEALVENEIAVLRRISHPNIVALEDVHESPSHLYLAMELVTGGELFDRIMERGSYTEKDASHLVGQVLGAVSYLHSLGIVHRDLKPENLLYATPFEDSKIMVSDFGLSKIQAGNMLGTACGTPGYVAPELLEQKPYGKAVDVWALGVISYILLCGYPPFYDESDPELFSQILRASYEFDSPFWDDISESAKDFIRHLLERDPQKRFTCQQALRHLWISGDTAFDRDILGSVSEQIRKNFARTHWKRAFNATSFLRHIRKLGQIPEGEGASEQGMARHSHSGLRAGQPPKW

## CC(C)N(CCC(=O)c1ccc2ccccc2c1)Cc1ccccc1
AURKB (human)
  residual activity: 101%
ACVR1B (human)
  residual activity: 99.5%
DAPK2 (human)
  residual activity: 99.6%
EPHA3 (human)
  residual activity: 85%
IRAK1 (human)
  residual activity: 102%
STK3 (human)
  residual activity: 102%
MAPK11 (human)
  residual activity: 108%
PRKCB1 (human)
  residual activity: 92.6%
RPS6KA3 KD1 KD2 (human)
  residual activity: 95.1%
PHKG2 (human)
  residual activity: 99.9%
ULK3 (human)
  residual activity: 95.8%
GSK3B (human)
  residual activity: 94.9%
RPS6KB1 (human)
  residual activity: 97.2%
NEK1 (human)
  residual activity: 81.9%
PNCK (human)
  residual activity: 102%
YES1 (human)
  residual activity: 100%
MST4 (human)
  residual activity: 108%
PAK4 (human)
  residual activity: 90.4%
CAMK1 (human)
  residual activity: 104%
PLK1 (human)
  residual activity: 97.8%
ERBB2 (human)
  residual activity: 98.7%
TYRO3 (human)
  residual activity: 98.9%
CHEK1 (human)
  residual activity: 106%
MYLK (human)
  residual activity: 95.6%
RPS6KA6 KD1 KD2 (human)
  residual activity: 97.4%
PRKCI (human)
  residual activity: 97.1%
MKNK2 (human)
  residual activity: 100%
MYLK2 (human)
  residual activity: 100%
EPHB3 (human)
  residual activity: 88.5%
IKBKE (human)
  residual activity: 93%
STK25 (human)
  residual activity: 94%
CLK2 (human)
  residual activity: 96.3%
STK38 (human)
  residual activity: 100%
FGFR1 (human)
  residual activity: 99.5%
MLTK (human)
  residual activity: 90.5%
PRKD2 (human)
  residual activity: 98.5%
RET (human)
  residual activity: 101%
MINK1 (human)
  residual activity: 101%
MET (human)
  residual activity: 110%
MAPK10 (human)
  residual activity: 91.1%
MAPKAPK5 (human)
  residual activity: 96.6%
NEK7 (human)
  residual activity: 95.2%
